The values below come from a melting point compilation (Tetko et al.).

For orientation: melting point means the temperature of the solid-liquid transition.

In the case of `Cn1c(=O)[nH]c2cnccc21`, the melting point lay within 266 to 268 °C.
In the case of `Brc1nnc(Br)s1` it was 104 to 106 °C; in that of `NC(=O)c1cc(C(=O)O)nn1-c1ccccc1`, 269 to 271 °C.
In the case of `CC(C)CC(C(=O)O)N1C(=O)c2ccccc2C1=O` (stereo not drawn) it was 119 to 121 °C; in that of `CC(C)OC(=O)CC(N)=S`, 68 to 70 °C.
In the case of `Nc1ccc(F)cc1-n1cccc1` it was 84 to 86 °C; in that of `Clc1ccnc2ccc(Br)cc12`, 111 to 113 °C; in that of `COc1ccccc1-c1ccc(C(C)=O)cc1`, 107 to 109 °C.
`Cc1nc(Cl)c2cc(-c3ccccc3)sc2n1`: the melting point lay in the range of 114 to 116 °C.
Under `Cc1nnc(SCC(=O)O)n1Cc1ccccc1` stands 167 to 169 °C; under `CC(C)(C)OC(=O)NC1CCN(CC(=O)O)CC1`, 204 to 206 °C.
Under `Cc1cc(Br)c2ccccc2c1N` stands 79 to 81 °C.
In the case of `Cn1cnn(-c2ccc(N)cc2)c1=O` it was 159 to 161 °C.
Consider `O=C(C(Cl)c1ccccc1)N1CCCCC1` (stereo not drawn), for which the melting point fell in the range of 63 to 74 °C.
Under `N#Cc1ccc(OCC2CC2)nc1` stands 53 to 55 °C.
Regarding `CCOC(=O)/C(C#N)=C\Nc1ccc2c(c1)OCCCO2`, the melting point lay within 124 to 126 °C.
`CC1CCN(C(=O)c2ccccc2N)CC1`: the melting point is 59 to 61 °C.
In the case of `CC(C)(C)c1ccc(C(=O)NC(=O)CCl)cc1` it was 120 to 122 °C.
In the case of `COC(=O)c1ccc(OCC#N)cc1` it was 95 to 97 °C.
For `CCn1c(=O)[nH]c2cc(C(=O)O)ccc2c1=O`, the melting point is 347 to 349 °C.
Under `O=C(O)C1CCCCC1C(=O)N1CCc2ccccc21` (stereo not drawn) stands 123 to 125 °C.
As to `Cc1c(I)cccc1[N+](=O)[O-]`, the melting point is 34 to 36 °C.
Consider `NCC(Cc1ccc(F)cc1)C(N)=O` (stereo not drawn), for which the melting point lay within 119 to 121 °C.
In the case of `C#CCOc1ccc(NC)cc1` it was 46 to 48 °C; in that of `N#Cc1cnc(Oc2ccccc2)cn1`, 99 to 101 °C.
In the case of `NS(=O)(=O)c1ccc(OCCSCC(=O)O)cc1` it was 196 to 198 °C.
With `O=C1C=C(Br)C(=O)N1c1ccccc1`, the melting point lay within 159 to 161 °C.
Under `Cc1ccc(S(=O)(=O)Oc2cccnc2[N+](=O)[O-])cc1` stands 83 to 85 °C.
`CC(C)c1ncc(Cl)c(C(=O)O)n1` yielded a melting point of 129 to 131 °C.
Under `Nc1cc(-c2cccc(C(F)(F)F)c2)no1` stands 89 to 91 °C; under `CC1Sc2ccc(C(=O)O)cc2NC1=O` (stereo not drawn), 230 to 232 °C; under `CCc1nc2c(s1)C(O)CCC2` (stereo not drawn), 75 to 77 °C.
In the case of `Cc1nc(C2CCCC2)sc1C(=O)O` it was 185 to 187 °C.
In the case of `NNc1nc(-c2ccncc2)no1` it was 189 to 191 °C; in that of `Cc1c(S(N)(=O)=O)sc2c(Cl)cccc12`, 261 to 263 °C; in that of `Sc1nnc(C2CC2)o1`, 131 to 133 °C.
Molecule `Cc1cccc(N2C(=O)NC(CCC(=O)O)C2=O)c1` (stereo not drawn) came in with a melting point of 158 to 160 °C.
In the case of `COc1ccc(N2CCC2=O)cc1` it was 103 to 105 °C.
Under `CS(=O)(=O)c1ccc(OCCBr)cc1` stands 100 to 102 °C; under `O=C(O)c1cc(S(=O)(=O)N2CCOCC2)c[nH]1`, 264 to 266 °C.
Under `CN(C)C(=O)Cc1ccccc1N` stands 69 to 71 °C.
`COc1ccc(Cl)c(S(N)(=O)=O)c1` yielded a melting point of 129 to 131 °C.
In the case of `CC1(c2ccc(C(N)=O)cc2)NC(=O)NC1=O` (stereo not drawn) it was 163 to 165 °C; in that of `O=C(O)Cn1cncn1`, 199 to 201 °C; in that of `O=C1C(Br)CCN1c1cccc(Cl)c1` (stereo not drawn), 89 to 91 °C.
In the case of `CC(C)(C)C(=O)NCC(=O)O` it was 132 to 134 °C; in that of `CN1C(=O)CCc2cc(Br)ccc21`, 79 to 81 °C; in that of `O=C(O)C1CCN(C(=O)c2ccc(C(F)(F)F)cc2)CC1`, 162 to 164 °C.
